PubChem BioAssay (NCI)
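Assay format: 96-well plates, 48-hour exposure. Abbreviation: GI50, concentration required for 50% inhibition of growth. TGI denotes the concentration required for complete inhibition of growth.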

Tests used:
Assay in all cases: growth of human tumour cells (NCI), 48 h
NCI-H522 lung = system: NCI-H522 lung
SF-539 CNS = system: SF-539 CNS
HS 578T breast = system: HS 578T breast
DU-145 prostate = system: DU-145 prostate
NCI-H23 lung = system: NCI-H23 lung
SNB-75 CNS = system: SNB-75 CNS
HL-60(TB) leukemia = system: HL-60(TB) leukemia
A549 NSCLC = system: A549 NSCLC
HOP-62 NSCLC = system: HOP-62 NSCLC
SNB-19 CNS = system: SNB-19 CNS

SMILES | TGI (NCI-H522 lung) [µM] | TGI (SF-539 CNS) [µM] | TGI (HS 578T breast) [µM] | TGI (DU-145 prostate) [µM] | TGI (NCI-H23 lung) [µM] | TGI (SNB-75 CNS) [µM] | TGI (HL-60(TB) leukemia) [µM] | TGI (A549 NSCLC) [µM] | TGI (HOP-62 NSCLC) [µM] | TGI (SNB-19 CNS) [µM] | GI50 (NCI-H522 lung) [µM] | GI50 (SF-539 CNS) [µM] | GI50 (HS 578T breast) [µM] | GI50 (DU-145 prostate) [µM] | GI50 (NCI-H23 lung) [µM] | GI50 (SNB-75 CNS) [µM] | GI50 (HL-60(TB) leukemia) [µM] | GI50 (A549 NSCLC) [µM] | GI50 (HOP-62 NSCLC) [µM] | GI50 (SNB-19 CNS) [µM]
Cn1c(=O)c2[nH]c(CCS)nc2n(C)c1=O | > 100 | > 100 | 99.7 | > 100 | > 100 | 67.7 | > 100 | > 100 | > 100 | > 100 |  |  |  |  |  |  |  |  |  | 
COc1cc2c3c(n(CCCN=[N+]=[N-])c(=O)c2cc1OC)-c1ccc(NC(C)=O)cc1C3=O | > 50 | > 50 | > 50 | > 50 | > 50 | > 50 | > 50 | > 50 | > 50 | > 50 | > 50 | > 50 | > 50 | > 50 | > 50 | 25.8 | 15 | > 50 | > 50 | > 50
Cn1c(=S)c2[nH]c(SCc3cccnc3)nc2n(C)c1=O | > 100 | > 100 | > 100 | > 100 | > 100 | > 100 | > 100 | > 100 | > 100 | > 100 |  |  |  |  |  |  |  |  |  | 
CCN1Cc2c(/C=C/c3ccccc3)nc3ccc(OC)cc3c2N(c2cccc(Cl)c2)C1 | 2.88 | 3.91 | 4.88 | 3.47 | 4.2 | 6.1 | 5.66 | 3.96 | 3.09 | 5.15 | 1.4 | 1.98 | 1.75 | 1.94 | 1.67 | 1.8 | 2.08 | 1.99 | 1.64 | 2.13
COc1ccc(C#CC2=C(Br)C(=O)OC2)cc1 | > 50 | 16.8 | 28.2 | 11.4 | 25.3 | 16.6 | > 50 | 28.6 |  | > 50 | 25.8 | 5.15 | 7.43 | 5.44 | 10.6 | 1.29 | 5.32 | 9.43 |  | 12
CCC1C[N+]2=C(c3cc(OC)c(OC)cc3CC2)c2c1cc1n2CCc2cc(OC)c(OC)cc2-1 (stereo not given) | 13.9 | 14.9 | > 100 | 36.8 | 18.7 | 7.48 | 10.1 | > 100 | 26.5 | 15.7 | 1.81 | 3.34 | 4.1 | 5.37 | 2.77 | 1.77 | 2.47 | 11.8 | 3.51 | 2.75
CN1CCC(n2cnc(-c3ccc(F)cc3)c2-c2ccnc(Nc3ccccc3)n2)CC1 | > 15.7 | > 25 | > 25 | > 25 | > 25 | 24.8 | > 23.2 | > 25 | > 25 | > 25 | 5.73 | 13.2 | 11.5 | 10.4 | 16.3 | 7.22 | 9.65 | 2.81 | 13.1 | 16.1
C=C(C)C1Cc2cc(C(C)=O)ccc2O1 (stereo not given) | > 100 | > 100 | > 100 | > 100 | > 100 | > 100 | > 100 | > 100 |  | > 100 |  |  |  |  |  |  |  |  |  | 
C=CC(=O)N1CCC(CNc2ncnc(N)c2-c2ccc(Oc3ccccc3)cc2)CC1 | 32.5 | 71 | 95.2 | > 100 | > 100 | 58.9 | 46.4 | > 100 | 82.6 | > 100 | 10.4 | 20.6 | 24 | 32.9 | 29.8 | 13.4 | 19.9 | 34.3 | 25.8 | 32.8
CCCCCC/C=C\CCCCCCCCCc1cccc(OC)c1O | > 100 | > 100 | > 100 | > 100 | > 100 | > 100 | > 100 | > 100 | > 100 | > 100 |  |  |  |  |  |  |  |  |  | 
COC(=O)[C@]12CC[C@@H](C)[C@H](C)[C@@H]1C1=CC[C@@H]3[C@@]4(C)C(C=O)=C[C@@](C)(COC(=O)c5ccco5)C4=CC[C@@]3(C)[C@]1(C)CC2 | 10.9 | 6.94 | 34.1 | 15.9 | 25.7 | 25.5 | 5.72 | 14 | 13.6 | > 100 | 3.31 | 2.57 | 3.72 | 3.81 | 3.25 | 2.47 | 2.85 | 3.28 | 3.4 | 5.12
CCCCc1n(Cc2ccc3ccccc3n2)cc[n+]1Cc1ccc2ccccc2c1 | 2.18 | 3.05 | 4.07 | 7.98 | 3.98 | 1.74 | 0.755 | 11 | 5.25 | 2.12 | 0.58 | 0.916 | 1.33 | 1.44 | 0.508 | 0.289 | 0.251 | 1.69 | 1.72 | 0.605
COc1ccccc1N1CCN(CC(O)Cn2c(=O)c3c(OC)nc(C)cc3c(=O)n2-c2ccccc2)CC1 (stereo not given) | > 100 | > 100 | > 100 | > 100 | > 100 | 37.6 | > 100 | > 100 | > 100 | > 100 | > 100 | 32.6 | 25.7 | > 100 | 59.1 | 14.8 | > 100 | > 100 | 43.7 | 25.5
Fc1cccc(-c2nc(-c3c[nH]c4ncccc34)cs2)c1 | > 100 | > 100 | 16.7 | > 100 | > 100 | 42.8 | > 100 | > 100 | > 100 | > 100 | > 100 | 70 | 2.95 | > 100 | 71.1 | 8.34 | > 100 | 17.7 | 25.7 | 22.6
O=C(O)c1ccccc1C(=O)Nc1cc2c(cc1Br)-c1ccccc1C2=O | > 100 | > 100 | > 100 | > 100 | > 100 | > 100 | > 100 | > 100 | > 100 | > 100 |  |  |  |  |  |  |  |  |  | 
CC(=O)OCCC/C(=C/c1cc2ccccc2c2ccccc12)[N+](=O)[O-] | 0.981 | 2.86 | > 23.1 | 2.51 | 3.27 | 2.17 | 4.57 | 3.74 | 3.5 | 3.22 | 0.252 | 1.53 | 2.47 | 1.26 | 1.57 | 0.606 | 1.43 | 1.84 | 1.91 | 1.66
COc1ccc(/C=N/C2=NNC(C)(c3ccccc3O)N2C(Cc2c[nH]c3ccccc23)C(=O)O)cc1 (stereo not given) | 10 | 10.3 | 21.7 | 17.8 | 8.61 | 13.4 | 8.9 | 30.5 | 11.9 | 14.6 | 2.49 | 2.75 | 2.83 | 4.13 | 2.28 | 1.72 | 2.28 | 4.44 | 2.58 | 3.76
CCN(CC)CCOc1ccccc1-n1c(C)ccc1-c1ccccc1 | 28.3 | 31 | 35.9 | 32.3 | 29.9 | 22.4 | 40.6 | 32.1 | 31.1 | 31.9 | 11.6 | 16.1 | 12.8 | 17.3 | 14.2 | 10.3 | 20.5 | 16.3 | 17 | 15.7
NCCNc1nc2ccc(F)cc2c2c(=O)c3cc(F)ccc3sc12 | 3.38 | 3.25 | 18.4 | 3.39 | 3.18 | 5.02 | 5.21 | 3.38 | 2.87 | 4.21 | 1.73 | 1.76 | 3.21 | 1.9 | 1.65 | 0.138 | 2.28 | 1.73 | 1.39 | 1.94
COC(=O)C(Br)(C(=O)OC)C(Br)C(Br)C(Br)c1ccccc1 (stereo not given) | 1.53 | 4.09 | 15 | 5.71 | 13.9 | 7.08 | 6.03 | 33 | 15.7 | 28.2 | 0.573 | 1.81 | 6.25 | 2.31 | 5.78 | 2.07 | 2.09 | 16.9 | 6.31 | 14.9
CSc1ccc(NC(=O)CCl)cc1 | 6.82 | > 10 | > 10 | > 10 | > 10 | 6.23 | > 10 | 5.79 | > 10 | > 10 |  |  |  |  |  |  |  |  |  | 
CCN1C(=O)N[C@H]2[C@@H]3NC(=O)c4ccc(Cl)n4[C@@H]3C[C@]21O | 1.76 | 2.57 | 13.2 | 19.3 | 4.52 | 7.63 | 0.634 | 17.6 | 3.71 | 9.25 | 0.288 | 0.369 | 0.578 | 0.615 | 0.531 | 0.663 | 0.242 | 1.74 | 0.466 | 0.31
COc1ccc(-n2nc(C(=O)NCC(=O)Nc3nc4cc(OC)ccc4s3)c3ccccc3c2=O)cc1 | 7.99 | 1.27 | > 100 |  | 9 | 2.08 | > 100 | 1.51 | 2.07 | 6.07 | 1.69 | 0.407 | 2.54 | 0.919 | 1.32 | 0.554 | > 100 | 0.349 | 0.663 | 1.84
NC1=C(/C(N)=N/O)C(c2ccccc2)c2ccc3ccccc3c2O1 (stereo not given) | 26.7 | 0.885 | > 77.6 | > 37.2 | > 100 |  | 0.788 | > 100 | > 100 | > 100 | 0.145 | 0.242 | 0.276 | 0.463 | 0.479 | 0.108 | 0.275 | 0.617 | 0.524 | 0.471
COc1cc(NC(=O)c2cc3ccccc3cc2O)c(OC)cc1Cl | 9.41 | 7.15 | 8.85 | 8.07 | 7.05 | 5.04 | 15.3 | 7.47 | 4.7 | 8.21 | 1.89 | 2.31 | 2.11 | 2.67 | 1.59 | 1.44 | 1.32 | 2.46 | 1.44 | 2.53
Nc1ncc(-c2ccc3ncnc(N4CCc5cc(F)c(Cl)cc54)c3c2)cc1C(F)(F)F | > 100 |  | 2.54 | > 100 | > 100 | 3.59 | > 100 | > 100 | > 100 | > 100 | 2.01 |  | 0.298 | 1.8 | 2.93 | 0.308 | 0.981 | 1.56 | 3.18 | 2.62
CCOc1cc(CCNC)c2c(ccc3ccc(OC)c(O)c32)c1OC | 21.7 |  | 45 | 28.5 | 27.1 | 32.3 | > 100 | 39.6 | 37 | 30.1 |  |  |  |  |  |  |  |  |  | 
COc1ccc(-c2cncn2-c2ccc(-c3nc4cc(OC)c(OC)c(OC)c4s3)cc2)cc1N | 17.5 | > 100 | > 100 | > 100 | > 100 | > 100 | 9.55 | > 100 |  | > 100 | 3.37 | > 100 | 28.3 | 6.38 | 4.76 | 52.3 | 2.2 | 5.77 |  | > 100
